Source: the NIST ThermoML archive (doi:10.1021/je700512a)
± gives the expanded uncertainty stated by the source.

Settings: Liquid, Ebulliometric method (Recirculating still)

SMILES	vapor or sublimation pressure (288.15 K) [kPa]	vapor or sublimation pressure (298.15 K) [kPa]	vapor or sublimation pressure (308.15 K) [kPa]
C1COCCO1 [1,4-dioxane]	2.703 ± 0.053	4.975 ± 0.061	8.119 ± 0.068
O [water]	1.706 ± 0.04	3.172 ± 0.047	5.556 ± 0.055
